Reference: patent US6737383B1, “Herbicidal oxadiazolidines” (priority 1999, dated 2004)

Experiments:
sugar beet = assay: Test B pre/postemergence sugar beet; type: in vivo, Beta vulgaris
Summary of the method: (§1)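 Test chemicals in a non-phytotoxic solvent mixture with surfactant were sprayed preemergence onto planted seeds and postemergence onto plants 2 to 18 cm tall (1- to 4-leaf stage). After twelve to sixteen days in a greenhouse, injury was visually rated against untreated controls from 0 (no effect) to 10 (complete control).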

velvetleaf = assay: Test B pre/postemergence velvetleaf; type: in vivo, Abutilon theophrasti
Summary of the method: as §1

rice = assay: Test B flood test rice; type: in vivo, Oryza sativa
Summary of the method: (§2)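 Read-out is a visual response score from 0 (no effect) to 10 (complete control), assigned by comparison with untreated controls. Treatment was applied at the 2-leaf stage, and plants stayed in the greenhouse for twelve to sixteen days before scoring.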

morningglory = assay: Test B pre/postemergence morningglory; type: in vivo, Ipomoea hederacea
Summary of the method: as §1

wild oat = assay: Test B pre/postemergence wild oat; type: in vivo, Avena fatua
Summary of the method: as §1

bedstraw = assay: Test B pre/postemergence bedstraw; type: in vivo, Galium aparine; details: Preemergence
Summary of the method: as §1

bamyardgrass = assay: Test B flood test barnyardgrass; type: in vivo, Echinochloa crus-galli
Summary of the method: as §2

wheat = assay: Test B pre/postemergence wheat; type: in vivo, Triticum aestivum
Summary of the method: as §1

soybean = assay: Test B pre/postemergence soybean; type: in vivo, Glycine max
Summary of the method: as §1

blackgrass = assay: Test B pre/postemergence blackgrass; type: in vivo, Alopecurus myosuroides
Summary of the method: as §1

corn = assay: Test B pre/postemergence corn; type: in vivo, Zea mays
Summary of the method: as §1

duck salad = assay: Test B flood test duck salad; type: in vivo, Heteranthera limosa
Summary of the method: as §2

surinam grass = assay: Test B pre/postemergence surinam grass; type: in vivo, Brachiaria decumbens
Summary of the method: as §1

purple nutsedge = assay: Test B pre/postemergence purple nutsedge; type: in vivo, Cyperus rotundus
Summary of the method: as §1

cocklebur = assay: Test B pre/postemergence cocklebur; type: in vivo, Xanthium strumarium
Summary of the method: as §1

giant foxtail = assay: Test B pre/postemergence giant foxtail; type: in vivo, Setaria faberii
Summary of the method: as §1

rape = assay: Test B pre/postemergence rape; type: in vivo, Brassica napus
Summary of the method: as §1

smallflower flatsedge = assay: Test B flood test smallflower flatsedge; type: in vivo, Cyperus difformis
Summary of the method: as §2

crabgrass = assay: Test B pre/postemergence crabgrass; type: in vivo, Digitaria sanguinalis
Summary of the method: as §1

pigweed = assay: Test B pre/postemergence pigweed; type: in vivo, Amaranthus retroflexus
Summary of the method: as §1

[1] = Postemergence, Rate 125 g/ha, scale of 0 to 10 where 0 is no effect and 10 is complete control
[2] = Postemergence, Rate 250 g/ha, scale of 0 to 10, 0 is no effect, 10 is complete control
[3] = Postemergence, Rate 500 g/ha, scale of 0 to 10 where 0 is no effect and 10 is complete control
[4] = Preemergence, Rate 62 g/ha, scale 0 to 10 (0 no effect, 10 complete control)
[5] = Preemergence, Rate 125 g/ha, scale of 0 to 10 where 0 is no effect and 10 is complete control
[6] = Preemergence, Rate 500 g/ha, scale of 0 to 10 where 0 is no effect and 10 is complete control
[7] = Rate 62 g/ha, flood test species, Pre-emergence, visual evaluation after twelve to sixteen days
[8] = Rate 125 g/ha, under heading Pre-emergence, flood test species, visual evaluation after twelve to sixteen days
[9] = Rate 250 g/ha, Pre-emergence (flood test species), scale 0 to 10, 0 is no effect, 10 is complete control
[10] = Rate 500 g/ha, Pre-emergence section of Table B, 0 to 10 scale (0 no effect, 10 complete control)
[11] = Postemergence, Rate 62 g/ha, scale of 0 to 10, 0 is no effect, 10 is complete control

COC(C)n1c(=O)on(C(=O)N(c2ccc(Cl)cc2)C(C)C)c1=O (stereo not shown) [Compound 592]
2: Morningglory plant response rating (morningglory; [2]) | Plant response rating, Morningglory (morningglory; [3]) | Plant response rating, Crabgrass (crabgrass; [3]) | Plant response rating, Crabgrass (crabgrass; [6])
1: Morningglory plant response rating (morningglory; [11]) | Plant response rating, Morningglory (morningglory; [1]) | Plant response rating, Soybean (soybean; [1]) | Soybean plant response rating (soybean; [2]) | Plant response rating, Soybean (soybean; [3])
0: Plant response rating, Sugarbeets (sugar beet; [1]) | Sugarbeets plant response rating (sugar beet; [2]) | Plant response rating, Sugarbeets (sugar beet; [3]) | Sugarbeets plant response rating (sugar beet; [4]) | Sugarbeets plant response rating (sugar beet; [5]) | Plant response rating, Sugarbeets (sugar beet; [6]) | Plant response rating, Velvetleaf (velvetleaf; [1]) | Velvetleaf plant response rating (velvetleaf; [2]) | Plant response rating, Velvetleaf (velvetleaf; [3]) | Velvetleaf plant response rating (velvetleaf; [4]) | Velvetleaf plant response rating (velvetleaf; [5]) | Plant response rating, Velvetleaf (velvetleaf; [6]) | Plant response rating, Rice (0 to 10 scale, 0 is no effect, 10 is complete control) (rice; [7]) | Rice plant response rating (0 to 10 scale, 0 is no effect, 10 is complete control) (rice; [8]) | Rice plant response rating (rice; [9]) | Rice plant response rating (rice; [10]) | Morningglory plant response rating (morningglory; [4]) | Morningglory plant response rating (morningglory; [5]) | Plant response rating, Morningglory (morningglory; [6]) | Plant response rating, Wild oats (wild oat; [1]) | Wild oats plant response rating (wild oat; [2]) | Plant response rating, Wild oats (wild oat; [3]) | Wild oats plant response rating (wild oat; [4]) | Wild oats plant response rating (wild oat; [5]) | Plant response rating, Wild oats (wild oat; [6]) | Bedstraw plant response rating (bedstraw; Rate 62 g/ha, scale 0 to 10 (0 no effect, 10 complete control)) | Bedstraw plant response rating (bedstraw; Rate 125 g/ha, scale of 0 to 10 where 0 is no effect and 10 is complete control) | Plant response rating, Barnyardgrass (0 to 10 scale, 0 is no effect, 10 is complete control) (bamyardgrass; [7]) | Barnyardgrass plant response rating (0 to 10 scale, 0 is no effect, 10 is complete control) (bamyardgrass; [8]) | Barnyardgrass plant response rating (bamyardgrass; [9]) | Barnyardgrass plant response rating (bamyardgrass; [10]) | Plant response rating, Wheat (wheat; [1]) | Wheat plant response rating (wheat; [2]) | Plant response rating, Wheat (wheat; [3]) | Wheat plant response rating (wheat; [4]) | Wheat plant response rating (wheat; [5]) | Plant response rating, Wheat (wheat; [6]) | Soybean plant response rating (soybean; [4]) | Soybean plant response rating (soybean; [5]) | Plant response rating, Soybean (soybean; [6]) | Blackgrass plant response rating (blackgrass; [11]) | Plant response rating, Blackgrass (blackgrass; [1]) | Blackgrass plant response rating (blackgrass; [2]) | Plant response rating, Blackgrass (blackgrass; [3]) | Blackgrass plant response rating (blackgrass; [4]) | Blackgrass plant response rating (blackgrass; [5]) | Blackgrass plant response rating (0 to 10 scale) (blackgrass; Preemergence, Rate 250 g/ha) | Blackgrass plant response rating (blackgrass; [6]) | Corn plant response rating (corn; [11]) | Plant response rating, Corn (corn; [1]) | Corn plant response rating (corn; [2]) | Plant response rating, Corn (corn; [3]) | Corn plant response rating (corn; [4]) | Corn plant response rating (corn; [5]) | Corn plant response rating (0 to 10 scale) (corn; Preemergence, Rate 250 g/ha) | Plant response rating, Corn (corn; [6]) | Plant response rating, Ducksalad (0 to 10 scale, 0 is no effect, 10 is complete control) (duck salad; [7]) | Ducksalad plant response rating (0 to 10 scale, 0 is no effect, 10 is complete control) (duck salad; [8]) | Ducksalad plant response rating (duck salad; [9]) | Ducksalad plant response rating (duck salad; [10]) | B. signalgrass plant response rating (surinam grass; [11]) | Plant response rating, B. signalgrass (surinam grass; [1]) | B. signalgrass plant response rating (surinam grass; [2]) | Plant response rating, B. signalgrass (surinam grass; [3]) | B. signalgrass plant response rating (surinam grass; [4]) | B. signalgrass plant response rating (surinam grass; [5]) | B. signalgrass plant response rating (0 to 10 scale, 0 is no effect, 10 is complete control) (surinam grass; Preemergence, Rate 250 g/ha) | B. signalgrass plant response rating (surinam grass; [6]) | Nutsedge plant response rating (purple nutsedge; [11]) | Plant response rating, Nutsedge (purple nutsedge; [1]) | Nutsedge plant response rating (purple nutsedge; [2]) | Plant response rating, Nutsedge (purple nutsedge; [3]) | Nutsedge plant response rating (purple nutsedge; [4]) | Nutsedge plant response rating (purple nutsedge; [5]) | Plant response rating, Nutsedge (purple nutsedge; [6]) | Cocklebur plant response rating (cocklebur; [11]) | Plant response rating, Cocklebur (cocklebur; [1]) | Cocklebur plant response rating (cocklebur; [2]) | Plant response rating, Cocklebur (cocklebur; [3]) | Cocklebur plant response rating (cocklebur; [4]) | Cocklebur plant response rating (cocklebur; [5]) | Cocklebur plant response rating (0 to 10 scale) (cocklebur; Preemergence, Rate 250 g/ha) | Plant response rating, Cocklebur (cocklebur; [6]) | Giant foxtail plant response rating (giant foxtail; [11]) | Plant response rating, Giant foxtail (giant foxtail; [1]) | Giant foxtail plant response rating (giant foxtail; [2]) | Plant response rating, Giant foxtail (giant foxtail; [3]) | Giant foxtail plant response rating (giant foxtail; [4]) | Giant foxtail plant response rating (giant foxtail; [5]) | Plant response rating, Giant foxtail (giant foxtail; [6]) | Rape plant response rating (rape; [11]) | Plant response rating, Rape (rape; [1]) | Rape plant response rating (rape; [2]) | Plant response rating, Rape (rape; [3]) | Rape plant response rating (rape; [4]) | Rape plant response rating (rape; [5]) | Plant response rating, Rape (rape; [6]) | Plant response rating, S. Flatsedge (0 to 10 scale, 0 is no effect, 10 is complete control) (smallflower flatsedge; [7]) | S. Flatsedge plant response rating (0 to 10 scale, 0 is no effect, 10 is complete control) (smallflower flatsedge; [8]) | S. Flatsedge plant response rating (smallflower flatsedge; [9]) | S. Flatsedge plant response rating (smallflower flatsedge; [10]) | Crabgrass plant response rating (crabgrass; [11]) | Plant response rating, Crabgrass (crabgrass; [1]) | Crabgrass plant response rating (crabgrass; [2]) | Crabgrass plant response rating (crabgrass; [4]) | Crabgrass plant response rating (crabgrass; [5]) | Plant response rating, Redroot pigweed (pigweed; [1]) | Redroot pigweed plant response rating (pigweed; [2]) | Plant response rating, Redroot pigweed (pigweed; [3]) | Redroot pigweed plant response rating (pigweed; [4]) | Redroot pigweed plant response rating (pigweed; [5]) | Plant response rating, Redroot pigweed (pigweed; [6])
